Biological target: T1, co-expressed N and C halves of ABCR (Homo sapiens, UniProt P78363)
T1 construct: The cDNAs coding for the N-half (amino acids 1-1325) and C-half (amino acids 1326-2273) of ABCR; made in house; host or cells: COS-1 cells, co-transfected
T1 sequence (P78363 1-1325): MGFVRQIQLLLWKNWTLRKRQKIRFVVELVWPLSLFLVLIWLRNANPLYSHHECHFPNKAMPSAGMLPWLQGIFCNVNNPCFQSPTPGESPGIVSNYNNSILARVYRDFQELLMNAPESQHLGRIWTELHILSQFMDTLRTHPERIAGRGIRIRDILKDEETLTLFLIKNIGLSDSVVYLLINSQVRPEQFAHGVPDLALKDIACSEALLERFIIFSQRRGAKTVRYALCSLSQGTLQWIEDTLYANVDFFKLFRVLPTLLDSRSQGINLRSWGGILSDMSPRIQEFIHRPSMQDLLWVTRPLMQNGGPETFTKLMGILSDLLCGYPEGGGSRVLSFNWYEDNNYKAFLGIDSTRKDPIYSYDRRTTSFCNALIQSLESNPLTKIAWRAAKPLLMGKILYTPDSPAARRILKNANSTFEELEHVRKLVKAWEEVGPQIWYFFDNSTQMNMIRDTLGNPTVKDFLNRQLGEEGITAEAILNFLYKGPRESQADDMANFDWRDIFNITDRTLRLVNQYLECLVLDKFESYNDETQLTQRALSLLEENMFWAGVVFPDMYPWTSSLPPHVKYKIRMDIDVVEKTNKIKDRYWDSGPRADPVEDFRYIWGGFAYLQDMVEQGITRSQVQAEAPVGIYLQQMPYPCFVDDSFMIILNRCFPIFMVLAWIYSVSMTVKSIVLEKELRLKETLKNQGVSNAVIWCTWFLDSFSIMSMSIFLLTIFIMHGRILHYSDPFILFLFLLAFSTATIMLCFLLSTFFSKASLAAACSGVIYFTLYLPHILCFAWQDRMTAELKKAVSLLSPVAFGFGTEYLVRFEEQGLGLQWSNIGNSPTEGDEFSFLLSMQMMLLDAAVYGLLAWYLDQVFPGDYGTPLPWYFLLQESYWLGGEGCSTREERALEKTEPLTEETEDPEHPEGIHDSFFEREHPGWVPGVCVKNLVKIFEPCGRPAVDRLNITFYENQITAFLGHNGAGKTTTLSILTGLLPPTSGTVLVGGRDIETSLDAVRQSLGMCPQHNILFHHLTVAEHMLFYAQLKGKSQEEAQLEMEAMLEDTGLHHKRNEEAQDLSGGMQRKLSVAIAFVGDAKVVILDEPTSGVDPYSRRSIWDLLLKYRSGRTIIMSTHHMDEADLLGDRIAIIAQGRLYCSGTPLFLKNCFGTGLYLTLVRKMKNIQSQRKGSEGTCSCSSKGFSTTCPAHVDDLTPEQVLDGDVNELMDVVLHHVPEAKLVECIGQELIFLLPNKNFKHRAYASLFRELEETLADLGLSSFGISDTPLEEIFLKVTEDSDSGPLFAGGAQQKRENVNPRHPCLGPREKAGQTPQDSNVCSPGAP
T1 sequence (P78363 1326-2273): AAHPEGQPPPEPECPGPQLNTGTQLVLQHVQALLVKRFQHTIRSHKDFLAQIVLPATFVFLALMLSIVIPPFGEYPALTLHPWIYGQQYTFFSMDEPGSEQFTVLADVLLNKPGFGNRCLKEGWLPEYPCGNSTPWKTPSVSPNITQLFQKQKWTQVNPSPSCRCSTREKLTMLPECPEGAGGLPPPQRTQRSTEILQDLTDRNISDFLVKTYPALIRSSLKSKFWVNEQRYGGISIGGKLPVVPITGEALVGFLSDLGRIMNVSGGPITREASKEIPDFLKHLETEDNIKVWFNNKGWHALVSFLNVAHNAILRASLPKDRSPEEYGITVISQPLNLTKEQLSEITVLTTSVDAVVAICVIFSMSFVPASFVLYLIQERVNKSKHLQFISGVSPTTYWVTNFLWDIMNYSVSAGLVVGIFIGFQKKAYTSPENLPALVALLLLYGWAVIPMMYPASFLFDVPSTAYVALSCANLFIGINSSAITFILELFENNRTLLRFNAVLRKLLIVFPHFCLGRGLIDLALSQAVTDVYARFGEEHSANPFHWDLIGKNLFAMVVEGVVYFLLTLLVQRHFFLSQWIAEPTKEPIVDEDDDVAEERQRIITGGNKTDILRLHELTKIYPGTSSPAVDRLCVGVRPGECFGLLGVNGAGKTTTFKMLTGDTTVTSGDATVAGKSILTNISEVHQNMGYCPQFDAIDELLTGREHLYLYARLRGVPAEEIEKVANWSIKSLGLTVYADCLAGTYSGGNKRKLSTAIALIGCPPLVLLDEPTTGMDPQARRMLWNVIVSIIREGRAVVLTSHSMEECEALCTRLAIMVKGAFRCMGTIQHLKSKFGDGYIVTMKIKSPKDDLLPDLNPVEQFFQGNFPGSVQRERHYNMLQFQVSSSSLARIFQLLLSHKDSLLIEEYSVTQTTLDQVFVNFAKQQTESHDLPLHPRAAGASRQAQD
Test: Retinal-stimulated ATPase activity of purified protein reconstituted in lipid vesicles
Assay type: biochemical
Settings: expressed in COS-1 cells, purified on Rim 3F4 column, 50 μM [α32P]ATP
Protocol: Membranes (from two 10 cm dishes) were solubilized in 0.5 ml of 1% Triton-X100 in Buffer A (140 mM NaCl, 20 mM Tris-HCl, pH 7.4) for 20 min on ice. For ATPase assays, the membrane preparation step was omitted and the cell suspension was solubilized directly in Buffer B (10 mg/ml soybean phospholipids, 10% glycerol, 1 mM dithiothreitol, 100 mM NaCl, 3 mM MgCl2, 50 mM NaHEPES, pH 7.4) containing 18 mM CHAPS. The supernatant after a 10 min centrifugation at 40,000 rpm (TLA100.4 rotor) was mixed with 50 μl Rim3F4 Sepharose 2B for 1 h at 4° C. The beads were washed 6 times in Buffer A containing 0.2% Triton X-100 or Buffer B containing 10 mM CHAPS and eluted with 4% SDS (for electrophoresis) or 0.2 mg/ml Rim3F4 peptide (for reconstitution and determination of ATPase activity). Purified protein (24 μl) was incubated with 6 μl of 50 mg/ml lipid (1:1 mixture of dioleoylphosphatidylethanolamine and brain polar lipid, by weight) and 3 μl n-octylglucoside for 30 min on ice. The mixture was diluted rapidly with 200 μl of Buffer C (1 mM dithiothreitol, 140 mM NaCl, 25 mM NaHEPES, pH 7.4) and passed through a 200 μl Extracti-gel column (Pierce). The flow-through containing the reconstituted protein was used for determination of ATPase activity.
ATPase activity was measured as described previously (Ahn, J., Wong, J. T., and Molday, R. S. (2000) J Biol Chem 275(27), 20399-405) using 50 μM [α^32P]ATP and thin layer chromatography. The all-trans retinal concentration was determined spectrophotometrically (λ383 nm=42.88 mM^−1 cm^−1). Protein concentration was estimated from the eluate before reconstitution by laser densitometry of Coomassie blue stained gels using bovine serum albumin as a standard. […] Direct protein measurements after reconstitution by densitometry of Western blots was about half of that in the eluate. […]
ATPase Activity of Expressed N and C Halves—The basal and retinal activated ATPase activity of full-length ABCR and the N and C halves individually or co-expressed in COS-1 cells was determined after immunoaffinity purification and reconstitution into lipid vesicles. […]

stimulation of ATPase activity: 1-2 fold
Compound: CC1=C(/C=C/C(C)=C/C=C/C(C)=C/C=O)C(C)(C)CCC1 [all-trans retinal]

— patent US20060110790A1, “Expression system for large functional proteins” (priority 2002, published 2006)
